{
  "source": "patent EP0423032A2",
  "about": "“Process for the preparation of isoxazolyl and isothiazolyl imidazobenzodiazepines, new derivatives thus obtained, their use as medicaments and compositions containing them” (ROUSSEL-UCLAF, priority 1989, dated 1991)",
  "data": [
    {"system": "récepteurs des benzodiazépines", "assay": "In vivo measurement of binding to benzodiazepine receptors, method of Goeders and Kuhar", "text": "La mesure in vivo de la liaison aux récepteurs des benzodiazépines a été effectuée selon la méthode décrite par Goeders N.E. et Kuhar M.J. Life, Sciences (1985) 37, 345. TABLEAU II", "values": [
      {"smiles": "CN1Cc2c(-c3cc(C4CC4)no3)ncn2-c2ccccc2C1=O", "note": "[Exemple 5, 3-(3-cyclopropylisoxazol-5-yl) 5,6-dihydro 5-méthyl 6-oxo-4H-imidazo [1,5-a] [1,4]-benzodiazépine]", "liaison in vivo DE 50 mg/kg IP": "2,0 mg/kg"},
      {"smiles": "CCc1cc(-c2ncn3c2CN(C)C(=O)c2ccccc2-3)on1", "note": "[Exemple 8, 5,6-dihydro 5-méthyl 6-oxo 3-(3-éthylisoxazol-5-yl) 4H-imidazo [1,5-a] [1,4]-benzodiazépine]", "liaison in vivo DE 50 mg/kg IP": "> 3,0 mg/kg"},
      {"smiles": "Cc1cc(-c2ncn3c2CN(C)C(=O)c2ccccc2-3)on1", "note": "[Exemple 7, 5,6-dihydro 5-méthyl 6-oxo 3-(3-méthylisoxazol-5-yl) 4H-imidazo [1,5-a] [1,4]-benzodiazépine]", "liaison in vivo DE 50 mg/kg IP": "0,62 mg/kg"}
    ]}
  ]
}
